From the supplement of paper PMC7108870

Assays:
HEK293sieSTAT3(wt) [1] = assay: drug sensitivity score (DSS), cytotoxicity CellTox Green (DSS (dimensionless)); higher = more cytotoxic; extreme values may be limits of the assay; settings: 72 h; STAT3 variant: wild type
Method in brief: (§1)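 Each value is one representative of two experiments in which HEK293 cells overexpressing wild-type or mutant STAT3 with a STAT3-dependent luciferase reporter were exposed to compounds at 5 concentrations (10-fold dilutions) for 72 hours at 37°C and 5% CO2. Readouts were CellTox Green fluorescence and then CellTiter-Glo luminescence, normalised to negative and positive control wells. The drug sensitivity score was based on the dose-response curve area and computed in Breeze.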

HEK293sieSTAT3(Y640F) [2] = assay: as above; settings: 72 h; STAT3 variant: Y640F (constitutively active)
Method in brief: as §1

HEK293sieSTAT3(wt) [3] = assay: drug sensitivity score (DSS), viability CellTiter-Glo (DSS (dimensionless)); higher = more growth inhibition; extreme values may be limits of the assay; settings: 72 h; STAT3 variant: wild type
Method in brief: as §1

HEK293sieSTAT3(Y640F) [4] = assay: as above; settings: 72 h; STAT3 variant: Y640F (constitutively active)
Method in brief: as §1

| SMILES | drug sensitivity score (HEK293sieSTAT3(wt) [1]) | drug sensitivity score (HEK293sieSTAT3(Y640F) [2]) | drug sensitivity score (HEK293sieSTAT3(wt) [3]) | drug sensitivity score (HEK293sieSTAT3(Y640F) [4]) |
| --- | --- | --- | --- | --- |
| CCS(=O)(=O)N1CC(CC#N)(n2cc(-c3ncnc4[nH]ccc34)cn2)C1 [Baricitinib] (top concentration tested 2500 nM) | 0.42 | 0 | 1.02 | 2.8 |
| CS(=O)(=O)c1ccc(C2=C(c3ccccc3)C(=O)OC2)cc1 [Rofecoxib] (top concentration tested 10000 nM) | 0 | 0 | 0 | 0 |
| O=P1(N(CCCl)CCCl)NCCCO1 (stereo not given) [Cyclophosphamide] (top concentration tested 40000 nM) | 0 | 0 | 0 | 0 |
| COc1ccccc1S(=O)(=O)Nc1ccc2c(c1)CN(C)C(=O)N2 [PFI-1] (top concentration tested 10000 nM) | 6.8 | 0.33 | 5.96 | 5.5 |
| COC(=O)c1ccc2c(c1)NC(=O)/C2=C(\Nc1ccc(N(C)C(=O)CN2CCN(C)CC2)cc1)c1ccccc1 [Nintedanib] (top concentration tested 10000 nM) | 6.55 | 3.45 | 9.79 | 8 |
| O=C(Cc1ccc(-c2ccc(OCCN3CCOCC3)cc2)cn1)NCc1ccccc1 [KX2-391] (top concentration tested 10000 nM) | 19.6 | 4.02 | 23.2 | 19.9 |
| CC(C)NC[C@@H](C(=O)N1CCN(c2ncnc3c2[C@H](C)C[C@H]3O)CC1)c1ccc(Cl)cc1 [Ipatasertib] (top concentration tested 10000 nM) | 0.07 | 0 | 16.7 | 14.6 |
| Nc1ncn([C@@H]2O[C@H](CO)[C@@H](O)[C@H]2O)c(=O)n1 [Azacitidine] (top concentration tested 10000 nM) | 0.87 | 0 | 2.72 | 2.86 |
| O=C(c1ccc(C(=O)N2CCC(N3CCCC3)CC2)c(Nc2ccccc2)c1)N1CCC(N2CCCC2)CC1 [UNC1215] (top concentration tested 30000 nM) | 0 | 0 | 0.89 | 0.33 |
| CC(C)NC(=O)COc1cccc(-c2nc(Nc3ccc4[nH]ncc4c3)c3ccccc3n2)c1 [SLx-2119] (top concentration tested 5000 nM) | 0.57 | 0 | 5.8 | 10.7 |
| C[C@@H]1C=C2C(=O)O[C@@H]3CC[C@H](C1)[C@]23O [Galiellalactone] (top concentration tested 25000 nM) | 3.45 | 0.48 | 4.61 | 4.57 |
| Clc1ccccc1C(c1ccccc1)(c1ccccc1)n1cccn1 [TRAM-34] (top concentration tested 1000 nM) | 0 | 0 | 1.55 | 1.41 |
| CS(=O)(=O)OCCCCOS(C)(=O)=O [Busulfan] (top concentration tested 100000 nM) | 1.26 | 0 | 4.87 | 0.42 |
| O=C1c2c(O)ccc(O)c2C(=O)c2c(NCCNCCO)ccc(NCCNCCO)c21 [Mitoxantrone] (top concentration tested 1000 nM) | 0.93 | 0.1 | 9.78 | 10.6 |
| C[C@@H]1CN(Cc2ccc(F)cc2)[C@@H](C)CN1C(=O)c1cc2c(C(=O)C(=O)N(C)C)cn(C)c2cc1Cl [Talmapimod] (top concentration tested 10000 nM) | 0 | 0 | 1.23 | 3.93 |
| CC[C@H](Nc1ncnc2[nH]cnc12)c1nc2cccc(F)c2c(=O)n1-c1ccccc1 [Idelalisib] (top concentration tested 10000 nM) | 0.23 | 0 | 2.04 | 1.95 |
| CN(C)/N=N/c1[nH]cnc1C(N)=O [Dacarbazine] (top concentration tested 10000 nM) | 0 | 0 | 2.09 | 0.02 |
| CO[C@H]1C(=O)[C@]2(C)[C@@H](OC)C[C@H]3OC[C@@]3(OC(C)=O)[C@H]2[C@H](OC(=O)c2ccccc2)[C@]2(O)C[C@H](OC(=O)[C@H](O)[C@@H](NC(=O)OC(C)(C)C)c3ccccc3)C(C)=C1C2(C)C [Cabazitaxel] (top concentration tested 1000 nM) | 16.3 | 4.14 | 28.6 | 26.2 |
| C=C1C[C@@H]2[C@H](CC[C@]3(C)C(=O)CC[C@@H]23)[C@@]2(C)C=CC(=O)C=C12 [Exemestane] (top concentration tested 10000 nM) | 0 | 0 | 3.65 | 3.39 |
| Cc1cnc(NC(=O)Nc2cc(Br)c(C)cc2OC[C@@H]2CNCCO2)cn1 [Rabusertib] (top concentration tested 1000 nM) | 1.61 | 0.03 | 5.03 | 5.38 |
| CN(C)Cc1ccc(S(=O)(=O)n2ccc(/C=C/C(=O)NO)c2)cc1 [Resminostat] (top concentration tested 10000 nM) | 6.75 | 5.95 | 12.3 | 11.5 |
| CN(C[C@@H]1COCCO1)S(=O)(=O)Nc1ccc2ccc3ncc(-c4cnn(C)c4)cc3c(=O)c2c1 [MK-2461] (top concentration tested 10000 nM) | 0 | 0 | 3.5 | 3.63 |
| Oc1ncnc2[nH]ncc12 [Allopurinol] (top concentration tested 10000 nM) | 0 | 0 | 0.7 | 3.38 |

| SMILES | drug sensitivity score (HEK293sieSTAT3(wt) [1]) | drug sensitivity score (HEK293sieSTAT3(Y640F) [2]) | drug sensitivity score (HEK293sieSTAT3(wt) [3]) | drug sensitivity score (HEK293sieSTAT3(Y640F) [4]) |
| --- | --- | --- | --- | --- |
| CNC(=O)[C@@H](NC(=O)[C@H](CC(C)C)[C@H](O)C(=O)NO)C(C)(C)C [Marimastat] (top concentration tested 10000 nM) | 0 | 0 | 1.16 | 1.16 |
| CCn1c(C(=O)N(C2CC2)C2CC2)cc2c3c(ncn3C)c(Nc3cc(C)n(C)n3)nc21 (top concentration tested 10000 nM) | 0 | 0 | 0.76 | 0.09 |
| O=C(Nc1ccncc1)C(=O)c1cn(Cc2ccc(Cl)cc2)c2ccccc12 [Indibulin] (top concentration tested 10000 nM) | 5.57 | 1.19 | 16 | 10.7 |
| CNC(=O)c1cc(Oc2ccc(NC(=O)Nc3ccc(Cl)c(C(F)(F)F)c3)cc2)ccn1 [Sorafenib] (top concentration tested 1000 nM) | 0 | 1.07 | 0.09 | 0 |
| O=c1sn(-c2cccc3ccccc23)c(=O)n1Cc1ccccc1 [Tideglusib] (top concentration tested 3000 nM) | 0 | 0 | 0.7 | 2.47 |
| COC1=CC(c2cc3ccccc3[nH]2)=N/C1=C\c1[nH]c(C)cc1C [Obatoclax] (top concentration tested 10000 nM) | 0 | 0 | 2.27 | 1.57 |
| C[C@H]1C[C@@H]2[C@H]([C@@H](O)C[C@@]3(C)[C@H]2CC[C@]3(O)C(=O)CO)[C@@]2(C)C=CC(=O)C=C12 [Methylprednisolone] (top concentration tested 10000 nM) | 0 | 0 | 1.52 | 2.04 |
| CN(c1ncccc1CNc1nc(Nc2ccc3c(c2)CC(=O)N3)ncc1C(F)(F)F)S(C)(=O)=O (top concentration tested 10000 nM) | 7.18 | 1.32 | 12 | 8.82 |
| Nc1ncnc2c1nc(Cl)n2[C@@H]1O[C@H](CO)[C@@H](O)[C@H]1O [8-chloro-adenosine] (top concentration tested 50000 nM) | 7.97 | 2.41 | 18.4 | 16.2 |
| Cc1ncc(Cl)cc1NCc1ccc(C(=O)N[C@@H](CC2CCCC2)C(=O)NC2CC2)s1 (top concentration tested 5000 nM) | 0 | 0.4 | 0.63 | 4.24 |
| NC(=O)N1CCC(CC(=O)N2CCC([C@H]3c4ncc(Br)cc4CCc4cc(Cl)cc(Br)c43)CC2)CC1 [Lonafarnib] (top concentration tested 10000 nM) | 1.31 | 0.03 | 8.7 | 6.11 |
| O=C(c1cc(Cc2n[nH]c(=O)c3ccccc23)ccc1F)N1CCN(C(=O)C2CC2)CC1 [Olaparib] (top concentration tested 10000 nM) | 0.67 | 0 | 3.58 | 4.22 |
| Cc1ccc(C(=O)N(CCCN)[C@@H](c2oc3cc(Cl)ccc3c(=O)c2Cc2ccccc2)C(C)C)cc1 (top concentration tested 100 nM) | 8.48 | 0.83 | 12.3 | 10.7 |
| COc1cc(Nc2c(C#N)cnc3cc(OCCCN4CCN(C)CC4)c(OC)cc23)c(Cl)cc1Cl [Bosutinib] (top concentration tested 10000 nM) | 7.02 | 7.59 | 8.54 | 7.76 |
| Cc1cccc(-c2nn3c(c2-c2ccnc4ccc(C(N)=O)cc24)CCC3)n1 [Galunisertib] (top concentration tested 1000 nM) | 0 | 1.47 | 0 | 0 |
| COc1cccc2c1c(O)c(C(=O)N(C)c1ccc(C(F)(F)F)cc1)c(=O)n2C [Tasquinimod] (top concentration tested 10000 nM) | 0 | 0 | 5.07 | 0 |
| O=C(O)C1(C(=O)O)CCC1.[NH2-].[NH2-].[Pt+2] [Carboplatin] (top concentration tested 100000 nM) | 4.89 | 1.37 | 10.6 | 9.56 |
| CN1CC[C@H](c2c(O)cc(O)c3c(=O)cc(-c4ccccc4Cl)oc23)[C@H](O)C1 [Alvocidib] (top concentration tested 10000 nM) | 17.1 | 9.09 | 24.4 | 20.1 |
| Oc1ccc2c(c1)CC[C@H](c1ccccc1)[C@@H]2c1ccc(OCCN2CCCC2)cc1 [Lasofoxifene] (top concentration tested 1000 nM) | 0 | 0 | 3.21 | 2.47 |
| O=C(Nc1cccnc1)N1CCC(Cc2cccc(Oc3ccc(C(F)(F)F)cn3)c2)CC1 [PF-3845] (top concentration tested 10000 nM) | 0 | 0 | 3.05 | 1.51 |
| Cc1sc2c(c1C)C(c1ccc(Cl)cc1)=N[C@@H](CC(=O)Nc1ccc(O)cc1)c1nnc(C)n1-2 [OTX015] (top concentration tested 10000 nM) | 10.9 | 3.12 | 10.5 | 12.2 |
| O=C(Nc1cccc(Cl)c1)Nc1ncc(CCNc2ncnc3ccsc23)s1 [SNS-314] (top concentration tested 1000 nM) | 2.17 | 0 | 5 | 5.69 |
